From patent publication US20220202783A1, “Use Of ADAM9 Inhibitor As Immunomodulator” (China Medical University, priority 2019, published 2022)

Assays:
Assay type in all cases: cell-based
Design in all cases: key to effect of inhibiting tumor cell growth: “+” represents that the compound has the effect of inhibiting tumor cell growth
[1] = tested on: lung cancer cells (TC1); assay: cytotoxicity assay in TC1 cells; details: for IC50: TC-1
Protocol: (§1) Please refer to FIG. 1A, FIG. 1B and Table 2, which show the analysis results of the compound of Formula (I) inhibiting ADAM9 activity. In FIG. 1A, Bm7 lung cancer cells were treated with the derivatives of the compound 6X-0310, and then cultured under anchorage-free culture condition. The expressions of ADAM9 and CDCP1 in Bm7 lung cancer cells were detected by Western blot, in which EF1α is an internal control, and mock represents Bm7 lung cancer cells without treatment. […] In the experiment, the compounds of Formula (I) of Example 1 to Example 32 were further performed cytotoxicity assay to measure the IC50 value of the compounds of Formula (I) of the present disclosure in lung cancer cell lines.

[2] = cytotoxicity assay in HNOF cells; details: human, HNOF cells
[3] = tested on: HNOF; assay: cytotoxicity assay in HNOF cells; details: HNOF
[4] = cytotoxicity assay in 293 cells; details: 293
[5] = tested on: kidney cancer cells (293); assay: cytotoxicity assay in 293 cells; details: Homo sapiens, HEK293
[6] = tested on: lung cancer cells (A549); assay: cytotoxicity assay in A549 cells; details: for IC50: Homo sapiens
Protocol: as §1

[7] = tested on: lung cancer cells (H1299); assay: cytotoxicity assay in H1299 cells; details: for effect of inhibiting tumor cell growth: H1299; for IC50: Homo sapiens, NCI-H1299
Protocol: as §1

[8] = tested on: lung cancer cells (Bm7brmx2-1st); assay: cytotoxicity assay in Bm7brmx2-1st cells
Protocol: as §1

[9] = tested on: lung cancer cells (Bm7brmx2); assay: cytotoxicity assay in Bm7brmx2 cells
Protocol: as §1

[10] = tested on: lung cancer cells (Bm7brmx2-2nd); assay: cytotoxicity assay in Bm7brmx2-2nd cells
Protocol: as §1

SMILES | effect of inhibiting tumor cell growth [1] | IC50 [1] [µM] | IC50 [2] [µM] | effect of inhibiting tumor cell growth [3] | effect of inhibiting tumor cell growth [4] | IC50 [5] [µM] | effect of inhibiting tumor cell growth [6] | IC50 [6] [µM] | effect of inhibiting tumor cell growth [7] | IC50 [7] [µM] | IC50 [8] [µM] | effect of inhibiting tumor cell growth [8] | IC50 [9] [µM] | effect of inhibiting tumor cell growth [9] | IC50 [10] [µM] | effect of inhibiting tumor cell growth [10]
O=C1c2ccccc2C(=O)N1CCc1csc(Nc2ccc(Cl)c(Cl)c2)n1 [2X-0336] | + | 55.9 | 80 | + | + | 58.7 | + | 128 | + | 101 | 37.6 | + | 117 | + | 63 | +
N#C/C(=C/c1ccc(OCc2ccccc2)cc1)c1nc(CCN2C(=O)c3ccccc3C2=O)cs1 [4X-0301] | + | 71.9 | 77.6 | + | + | 49.5 | + | 161 | + | 102 | 61.2 | + | 128 | + | 310 | +
N#C/C(=C/c1cccc(C(F)(F)F)c1)c1nc(CCN2C(=O)c3ccccc3C2=O)cs1 [4X-0302] | + | 125 | 152 | + | + | 55.7 | + | 116 | + | 190 | 520 | + | 852 | + | 434 | +
CC(C)CN1CCCc2cc(/C=C(\C#N)c3nc(CCN4C(=O)c5ccccc5C4=O)cs3)ccc21 [4X-0311] | + | 345 | 80.7 | + | + | 62.9 | + | 238 | + | > 125 | 34.4 | + | 60.6 | + | 86.6 | +
O=C1c2ccccc2C(=O)N1CCc1csc(OCc2cc(F)c(F)c(F)c2)n1 [13W-0300] | + | – | – | + | + | – | + | – | + | – | – | + | – | + | – | +
O=C1c2ccccc2C(=O)N1CCc1csc(SCc2ccc(C(F)(F)F)cc2)n1 [13W-0301] | + | – | – | + | + | – | + | – | + | – | – | + | – | + | – | +
O=C(c1nc(CCN2C(=O)c3ccccc3C2=O)cs1)C(O)c1cc2ccccc2o1 (stereo not drawn) [13W-0302] | + | – | – | + | + | – | + | – | + | – | – | + | – | + | – | +
O=C1c2ccccc2C(=O)N1CCc1csc(-c2cc3ccccc3[nH]2)n1 [13W-0303] | + | – | – | + | + | – | + | – | + | – | – | + | – | + | – | +
O=C1c2ccccc2C(=O)N1CCc1csc(N2C(=O)c3ccccc3C2=O)n1 [13W-0305] | + | – | – | + | + | – | + | – | + | – | – | + | – | + | – | +
O=C1c2ccccc2C(=O)N1CCc1csc(N2CCCCC2)n1 [13W-0306] | + | – | – | + | + | – | + | – | + | – | – | + | – | + | – | +
O=C1CCC(=O)C1c1nc(CCN2C(=O)c3ccccc3C2=O)cs1 [13W-0307] | + | – | – | + | + | – | + | – | + | – | – | + | – | + | – | +
